Organism: Rattus norvegicus
Experiment: DrugMatrix - Regimen: Daily Repeat
Format: toxicity, organism-based, Sprague-Dawley
Set-up: regimen Daily Repeat, gender Male, age 6-8 weeks
Settings: in vivo, po, route oral GAVAGE, vehicle 100 % WATER; for ABSOLUTE BASOPHIL / ABSOLUTE EOSINOPHIL / ABSOLUTE LYMPHOCYTE / ABSOLUTE MONOCYTE / ABSOLUTE SEGMENTED NEUTROPHIL / BASOPHIL / EOSINOPHIL / ERYTHROCYTE COUNT / HEMATOCRIT / HEMOGLOBIN / LEUKOCYTE COUNT / LYMPHOCYTE / MEAN CORPUSCULAR HEMOGLOBIN / MEAN CORPUSCULAR HEMOGLOBIN CONCENTRATION / MEAN CORPUSCULAR VOLUME / MONOCYTE / NEUTROPHIL / NUCLEATED RED BLOOD CELLS / PLATELET COUNT: tissue Blood; for ALANINE AMINOTRANSFERASE / ALBUMIN / ALKALINE PHOSPHATASE / ASPARTATE AMINOTRANSFERASE / BLOOD UREA NITROGEN / CARBON DIOXIDE / CHLORIDE / CHOLESTEROL / CREATINE PHOSPHOKINASE / CREATININE / GLUCOSE / LACTATE DEHYDROGENASE / LIPASE / PHOSPHORUS / POTASSIUM / SODIUM / TOTAL BILIRUBIN / TOTAL PROTEIN / URIC ACID: tissue Plasma
[1] = 0 mg/kg, 72 h, dose level Control, time 3 day
[2] = 0 mg/kg, 120 h, dose level Control, time 5 day
[3] = 4.5 mg/kg, 72 h, dose level Low, time 3 day

NN [HYDRAZINE]
ABSOLUTE BASOPHIL [1]: 0 CELLS/uL | ABSOLUTE EOSINOPHIL [1]: 20.17 CELLS/uL | ABSOLUTE LYMPHOCYTE [1]: 12371.67 CELLS/uL | ABSOLUTE MONOCYTE [1]: 166 CELLS/uL | ABSOLUTE SEGMENTED NEUTROPHIL [1]: 1292.17 CELLS/uL | BASOPHIL [1]: 0% | EOSINOPHIL [1]: 0.17% | ERYTHROCYTE COUNT [1]: 5.46 x10E6/uL | HEMATOCRIT [1]: 34.38% | HEMOGLOBIN [1]: 13.32 G/DL | LEUKOCYTE COUNT [1]: 13.85 x10E3/uL | LYMPHOCYTE [1]: 88.5% | MEAN CORPUSCULAR HEMOGLOBIN [1]: 24.42 pg | MEAN CORPUSCULAR HEMOGLOBIN CONCENTRATION [1]: 38.7 G/DL | MEAN CORPUSCULAR VOLUME [1]: 63.07 fL | MONOCYTE [1]: 1.17% | NEUTROPHIL [1]: 10.17% | NUCLEATED RED BLOOD CELLS [1]: 0.17 /100WBC | PLATELET COUNT [1]: 1193.5 x10E3/uL | ALANINE AMINOTRANSFERASE [1]: 54.5 u/L | ALBUMIN [1]: 4.02 G/DL | ALKALINE PHOSPHATASE [1]: 346.5 u/L | ASPARTATE AMINOTRANSFERASE [1]: 103.17 u/L | BLOOD UREA NITROGEN [1]: 16.5 mg/dL | CARBON DIOXIDE [1]: 29.83 mmol/L | CHLORIDE [1]: 99.5 MEQ/L | CHOLESTEROL [1]: 72.5 mg/dL | CREATINE PHOSPHOKINASE [1]: 532.5 u/L | CREATININE [1]: 0.18 mg/dL | GLUCOSE [1]: 168.5 mg/dL | LACTATE DEHYDROGENASE [1]: 536.5 u/L | LIPASE [1]: 11.17 u/L | PHOSPHORUS [1]: 11.48 mg/dL | POTASSIUM [1]: 5.95 MEQ/L | SODIUM [1]: 140.5 MEQ/L | TOTAL BILIRUBIN [1]: 0.18 mg/dL | TOTAL PROTEIN [1]: 5.77 G/DL | URIC ACID [1]: 1.42 mg/dL | ABSOLUTE BASOPHIL [2]: 0 CELLS/uL | ABSOLUTE EOSINOPHIL [2]: 22.83 CELLS/uL | ABSOLUTE LYMPHOCYTE [2]: 12202.83 CELLS/uL | ABSOLUTE MONOCYTE [2]: 158 CELLS/uL | ABSOLUTE SEGMENTED NEUTROPHIL [2]: 1283 CELLS/uL | BASOPHIL [2]: 0% | EOSINOPHIL [2]: 0.17% | ERYTHROCYTE COUNT [2]: 5.88 x10E6/uL | HEMATOCRIT [2]: 36.62% | HEMOGLOBIN [2]: 14.07 G/DL | LEUKOCYTE COUNT [2]: 13.67 x10E3/uL | LYMPHOCYTE [2]: 89.5% | MEAN CORPUSCULAR HEMOGLOBIN [2]: 23.95 pg | MEAN CORPUSCULAR HEMOGLOBIN CONCENTRATION [2]: 38.43 G/DL | MEAN CORPUSCULAR VOLUME [2]: 62.28 fL | MONOCYTE [2]: 1.17% | NEUTROPHIL [2]: 9.17% | NUCLEATED RED BLOOD CELLS [2]: 0.17 /100WBC | PLATELET COUNT [2]: 1198 x10E3/uL | ALANINE AMINOTRANSFERASE [2]: 51 u/L | ALBUMIN [2]: 4.3 G/DL | ALKALINE PHOSPHATASE [2]: 343 u/L | ASPARTATE AMINOTRANSFERASE [2]: 89.83 u/L | BLOOD UREA NITROGEN [2]: 17.67 mg/dL | CARBON DIOXIDE [2]: 27.17 mmol/L | CHLORIDE [2]: 98.33 MEQ/L | CHOLESTEROL [2]: 82.5 mg/dL | CREATINE PHOSPHOKINASE [2]: 533.33 u/L | CREATININE [2]: 0.18 mg/dL | GLUCOSE [2]: 152.67 mg/dL | LACTATE DEHYDROGENASE [2]: 220.33 u/L | LIPASE [2]: 11.5 u/L | PHOSPHORUS [2]: 11.25 mg/dL | POTASSIUM [2]: 6.29 MEQ/L | SODIUM [2]: 140.53 MEQ/L | TOTAL BILIRUBIN [2]: 0.22 mg/dL | TOTAL PROTEIN [2]: 6.12 G/DL | URIC ACID [2]: 1.42 mg/dL | ABSOLUTE BASOPHIL [3]: 0 CELLS/uL | ABSOLUTE EOSINOPHIL [3]: 52 CELLS/uL | ABSOLUTE LYMPHOCYTE [3]: 11298 CELLS/uL | ABSOLUTE MONOCYTE [3]: 113 CELLS/uL | ABSOLUTE SEGMENTED NEUTROPHIL [3]: 1470.33 CELLS/uL | BASOPHIL [3]: 0% | EOSINOPHIL [3]: 0.33% | ERYTHROCYTE COUNT [3]: 5.57 x10E6/uL | HEMATOCRIT [3]: 35.73% | HEMOGLOBIN [3]: 13.97 G/DL | LEUKOCYTE COUNT [3]: 12.93 x10E3/uL | LYMPHOCYTE [3]: 87.33% | MEAN CORPUSCULAR HEMOGLOBIN [3]: 25.1 pg | MEAN CORPUSCULAR HEMOGLOBIN CONCENTRATION [3]: 39.1 G/DL | MEAN CORPUSCULAR VOLUME [3]: 64.2 fL | MONOCYTE [3]: 1% | NEUTROPHIL [3]: 11.33% | NUCLEATED RED BLOOD CELLS [3]: 0.33 /100WBC | PLATELET COUNT [3]: 1229.67 x10E3/uL | ALANINE AMINOTRANSFERASE [3]: 44.67 u/L | ALBUMIN [3]: 4.07 G/DL | ALKALINE PHOSPHATASE [3]: 421.33 u/L | ASPARTATE AMINOTRANSFERASE [3]: 89.67 u/L | BLOOD UREA NITROGEN [3]: 13.33 mg/dL | CARBON DIOXIDE [3]: 30.67 mmol/L | CHLORIDE [3]: 99 MEQ/L | CHOLESTEROL [3]: 73.67 mg/dL | CREATINE PHOSPHOKINASE [3]: 298.33 u/L | CREATININE [3]: 0.17 mg/dL | GLUCOSE [3]: 155 mg/dL | LACTATE DEHYDROGENASE [3]: 178.33 u/L | LIPASE [3]: 10.67 u/L | PHOSPHORUS [3]: 11.43 mg/dL | POTASSIUM [3]: 6.44 MEQ/L | SODIUM [3]: 142.33 MEQ/L | TOTAL BILIRUBIN [3]: 0.2 mg/dL | TOTAL PROTEIN [3]: 6.07 G/DL | URIC ACID [3]: 1.73 mg/dL
